The results in this text go back to patent US8293781B2, “Indole derivatives having cPLA2 inhibiting activity and applications and production methods of the same” (Daiichi Sankyo Company, Limited, priority 2007, dated 2012).

Molecules are shown by their SMILES. Counter-ions that a name gives are not always drawn.

In this test the target is T1, cPLA2 crudely purified from the cytoplasm fraction of U937 (Homo sapiens, UniProt P47712).
T1 construct: cPLA2 crudely purified from the cytoplasm fraction of U937; endogenous in cells; host or cells: U937 cells (cytoplasm fraction, crude purification)
T1 sequence (P47712 1-749): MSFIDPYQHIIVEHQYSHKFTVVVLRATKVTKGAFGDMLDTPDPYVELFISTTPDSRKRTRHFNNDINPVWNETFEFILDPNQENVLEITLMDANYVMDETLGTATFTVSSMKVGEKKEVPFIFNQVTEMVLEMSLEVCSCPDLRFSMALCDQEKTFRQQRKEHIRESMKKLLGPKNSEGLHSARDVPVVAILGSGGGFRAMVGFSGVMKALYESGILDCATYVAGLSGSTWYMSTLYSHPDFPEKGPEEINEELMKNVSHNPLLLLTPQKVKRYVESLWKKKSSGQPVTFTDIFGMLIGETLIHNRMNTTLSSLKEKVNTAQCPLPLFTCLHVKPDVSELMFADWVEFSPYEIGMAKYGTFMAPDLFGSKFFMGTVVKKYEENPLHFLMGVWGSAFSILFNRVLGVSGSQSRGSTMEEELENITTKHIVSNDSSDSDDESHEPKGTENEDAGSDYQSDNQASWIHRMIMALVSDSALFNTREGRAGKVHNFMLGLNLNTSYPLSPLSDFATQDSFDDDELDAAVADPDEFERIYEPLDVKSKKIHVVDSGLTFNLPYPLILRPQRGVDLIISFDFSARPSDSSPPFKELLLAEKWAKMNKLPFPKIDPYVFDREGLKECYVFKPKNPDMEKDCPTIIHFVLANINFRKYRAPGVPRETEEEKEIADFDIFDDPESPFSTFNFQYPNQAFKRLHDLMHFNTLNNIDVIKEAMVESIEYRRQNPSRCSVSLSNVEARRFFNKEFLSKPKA
The test is described as follows: Measurement of cPLA2 inhibitory activity (release of [14C]-arachidonic acid from phosphatidyl choline liposome). Format: biochemical. To be noted: cPLA2 from U937 cytoplasm fraction, [14C]arachidonyl-phosphatidyl choline liposome, 37° C., 60 minutes; read-out: cPLA2 inhibitory activity, 50% inhibiting concentration IC50. An outline of the steps: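 The read-out is radioactivity from extracted [14C]-arachidonic acid, freed over 60 min at 37° C from liposomes of 14C-arachidonyl phosphatidylcholine (10 μM PC in the added solution). Buffer was 50 mM HEPES pH 7.5 with Ca2+, DTT, NaCl and BSA. IC50 was derived from inhibition relative to enzyme control minus no-enzyme control.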

Regarding `O=C(O)CCc1ccc2c(c1)c(CCc1ccccc1)cn2-c1cccc(OC(F)F)c1` [Example 185, 3-{1-[3-(difluoromethoxy)phenyl]-3-(2-phenylethyl)-1H-indol-5-yl}propanoic acid], the IC50 was 278 nM.
The value for `O=C(O)CCc1ccc2c(c1)c(CCc1ccccc1)cn2-c1ccc(OC(F)F)cc1` [Example 189, 3-{1-[4-(difluoromethoxy)phenyl]-3-(2-phenylethyl)-1H-indol-5-yl}propanoic acid] was 43 nM; that for `Nc1ccc(-n2cc(CCc3ccccc3)c3cc(CCC(=O)O)ccc32)cc1` [Example 196, 3-[1-(4-aminophenyl)-3-(2-phenylethyl)-1H-indol-5-yl]propanoic acid] was 66 nM; that for `COCC(=O)Nc1ccc(-n2cc(CCc3ccccc3)c3cc(CCC(=O)O)ccc32)cc1` [Example 197, 3-[1-{4-[(methoxyacetyl)amino]phenyl}-3-(2-phenylethyl)-1H-indol-5-yl]propanoic acid] was 157 nM.
With `O=C(O)CCc1ccc2c(c1)c(CCc1ccccc1)cn2-c1ccc(OCc2ccccc2)nc1` [Example 199, 3-{1-[6-(benzyloxy)pyridin-3-yl]-3-(2-phenylethyl)-1H-indol-5-yl}propanoic acid], the IC50 turned out to be 986 nM.
The result for `COCCc1ccc(-n2cc(CCc3ccccc3)c3cc(CCC(=O)O)ccc32)cc1` [Example 201, 3-{1-[4-(2-methoxyethyl)phenyl]-3-(2-phenylethyl)-1H-indol-5-yl}propanoic acid] reads 219 nM; that for `COCCOc1ccc(-n2cc(CCc3ccccc3)c3cc(CCC(=O)O)ccc32)cc1` [Example 203, 3-{1-[4-(2-methoxyethoxy)phenyl]-3-(2-phenylethyl)-1H-indol-5-yl}propanoic acid], 10 nM.
Turning to `O=C(O)CCc1ccc2c(c1)c(CCc1ccccc1)cn2-c1ccc(C(F)(F)F)cn1` [Example 205, 3-{3-(2-phenylethyl)-1-[5-(trifluoromethyl)pyridin-2-yl]-1H-indol-5-yl}propanoic acid], the IC50 was found to be 133 nM.
The result for `O=C(O)CCc1ccc2c(c1)c(CCc1ccccc1)cn2-c1ccc(C(F)(F)F)cc1` [Example 207, 3-{3-(2-phenylethyl)-1-[4-(trifluoromethyl)phenyl]-1H-indol-5-yl}propanoic acid] reads 64 nM; that for `O=C(O)CCc1ccc2c(c1)c(CCc1ccccc1)cn2-c1ccc(CCO)cc1` [Example 209, 3-{1-[4-(2-hydroxyethyl)phenyl]-3-(2-phenylethyl)-1H-indol-5-yl}propanoic acid], 244 nM.
The result for `COc1ccc(-n2cc(CCc3ccccc3)c3cc(CCC(=O)O)ccc32)cc1OC` [Example 211, 3-[1-(3,4-dimethoxyphenyl)-3-(2-phenylethyl)-1H-indol-5-yl]propanoic acid] reads 790 nM; that for `O=C(O)CCc1ccc2c(c1)c(CCc1ccccc1)cn2-c1ccc(OC2CCCCO2)cc1` (stereo not shown) [Example 213, 3-{3-(2-phenylethyl)-1-[4-(tetrahydro-2H-pyran-2-yloxy)phenyl]-1H-indol-5-yl}propanoic acid], 15 nM.
Turning to `O=C(O)CCc1ccc2c(c1)c(CCc1ccccc1)cn2-c1ccc(OC2CCCCO2)cc1` (stereo not shown) [Example 214, 3-{3-(2-phenylethyl)-1-[4-(tetrahydro-2H-pyran-2-yloxy)phenyl]-1H-indol-5-yl}propanoic acid 2-amino-2-(hydroxymethyl)propane-1,3-diol salt (1:1)], the IC50 was 5 nM.
In the case of `COCc1ccc(-n2cc(CCc3ccccc3)c3cc(CCC(=O)O)ccc32)cc1` [Example 216, 3-{1-[4-(methoxymethyl)phenyl]-3-(2-phenylethyl)-1H-indol-5-yl}propanoic acid], the IC50 turned out to be 86 nM.
For `O=C(O)CCc1ccc2c(c1)c(CCc1ccccc1)cn2-c1ccc(CO)cc1` [Example 219, 3-{1-[4-(hydroxymethyl)phenyl]-3-(2-phenylethyl)-1H-indol-5-yl}propanoic acid], the IC50 is 147 nM.
The value for `O=C(O)CCc1ccc2c(c1)c(CCc1ccccc1)cn2-c1ccc(CO)cc1` [Example 220, 3-{1-[4-(hydroxymethyl)phenyl]-3-(2-phenylethyl)-1H-indol-5-yl}propanoic acid 2-amino-2-(hydroxymethyl)propane-1,3-diol salt (1:1)] was 146 nM; that for `O=C(O)CCc1ccc2c(c1)c(CCc1ccccc1)cn2-c1ccc(OCCN2CCCC2)cc1` [Example 222, 3-{3-(2-phenylethyl)-1-[4-(2-pyrrolidin-1-ylethoxy)phenyl]-1H-indol-5-yl}propanoic acid] was 49 nM; that for `O=C(O)CCc1ccc2c(c1)c(CCc1ccccc1)cn2-c1ccc(OCCN2CCCC2)cc1` [Example 223, 3-{3-(2-phenylethyl)-1-[4-(2-pyrrolidin-1-ylethoxy)phenyl]-1H-indol-5-yl}propanoic acid hydrochloride] was 57 nM.
The result for `O=C(O)CCc1ccc2c(c1)c(CCc1ccccc1)cn2-c1ccc(OC2CCOCC2)cc1` [Example 225, 3-{3-(2-phenylethyl)-1-[4-(tetrahydro-2H-pyran-4-yloxy)phenyl]-1H-indol-5-yl}propanoic acid] reads 8 nM; that for `O=C(O)CCc1ccc2c(c1)c(CCc1ccccc1)cn2-c1ccc(OCCO)cc1` [Example 228, 3-{1-[4-(2-hydroxyethoxy)phenyl]-3-(2-phenylethyl)-1H-indol-5-yl}propanoic acid], 4 nM; that for `O=C(O)CCc1ccc2c(c1)c(CCc1ccccc1)cn2-c1ccc2c(c1)OCCO2` [Example 233, 3-[1-(2,3-dihydro-1,4-benzodioxin-6-yl)-3-(2-phenylethyl)-1H-indol-5-yl]propanoic acid 2-amino-2-(hydroxymethyl)propane-1,3-diol salt (1:1)], 82 nM.
`O=C(O)CCc1ccc2c(c1)c(CCc1ccccc1)cn2-c1ccc(Cc2ccccn2)cc1` [Example 235, 3-{3-(2-phenylethyl)-1-[4-(pyridin-2-ylmethyl)phenyl]-1H-indol-5-yl}propanoic acid hydrochloride]: the IC50 was 122 nM.
The result for `O=C(O)CCc1ccc2c(c1)c(CCc1ccccc1)cn2-c1ccc(Cc2ccncc2)cc1` [Example 237, 3-{3-(2-phenylethyl)-1-[4-(pyridin-4-ylmethyl)phenyl]-1H-indol-5-yl}propanoic acid hydrochloride] reads 193 nM; that for `O=C(O)/C=C/c1ccc2c(c1)c(CCc1ccccc1)cn2-c1ccc(O)cc1` [Example 239, (2E)-3-[1-(4-hydroxyphenyl)-3-(2-phenylethyl)-1H-indol-5-yl]-2-propenoic acid], 54 nM.
Consider `O=C(O)CCc1ccc2c(c1)c(CCc1ccccc1)cn2-c1ccc(OCC2CCCCO2)cc1` (stereo not shown) [Example 243, 3-{3-(2-phenylethyl)-1-[4-(tetrahydro-2H-pyran-2-ylmethoxy)phenyl]-1H-indol-5-yl}propanoic acid 2-amino-2-(hydroxymethyl)propane-1,3-diol salt (1:1)], for which the IC50 was found to be 4 nM.
In the case of `O=C(O)CCc1ccc2c(c1)c(CCc1ccccc1)cn2-c1ccc(OCc2ccccn2)cc1` [Example 245, 3-{3-(2-phenylethyl)-1-[4-(pyridin-2-ylmethoxy)phenyl]-1H-indol-5-yl}propanoic acid], the IC50 is 10 nM.
The result for `O=C(O)CCc1ccc2c(c1)c(CCc1ccccc1)cn2-c1ccc(OCc2ccccn2)cc1` [Example 246, 3-{3-(2-phenylethyl)-1-[4-(pyridin-2-ylmethoxy)phenyl]-1H-indol-5-yl}propanoic acid hydrochloride] reads 7 nM.
`O=C(O)CCc1ccc2c(c1)c(CCc1ccccc1)cn2-c1ccc(OCc2cccnc2)cc1` [Example 248, 3-{3-(2-phenylethyl)-1-[4-(pyridin-3-ylmethoxy)phenyl]-1H-indol-5-yl}propanoic acid]: the IC50 stood at 7 nM.
`O=C(O)CCc1ccc2c(c1)c(CCc1ccccc1)cn2-c1ccc(OCc2cccnc2)cc1` [Example 249, 3-{3-(2-phenylethyl)-1-[4-(pyridin-3-ylmethoxy)phenyl]-1H-indol-5-yl}propanoic acid hydrochloride]: the IC50 was 26 nM.
The result for `O=C(O)CCc1ccc2c(c1)c(CCc1ccccc1)cn2-c1ccc(OCCc2ccccn2)cc1` [Example 251, 3-{3-(2-phenylethyl)-1-[4-(2-pyridin-2-ylethoxy)phenyl]-1H-indol-5-yl}propanoic acid] reads 9 nM; that for `O=C(O)CCc1ccc2c(c1)c(CCc1ccccc1)cn2-c1ccc(OCCc2cccnc2)cc1` [Example 253, 3-{3-(2-phenylethyl)-1-[4-(2-pyridin-3-ylethoxy)phenyl]-1H-indol-5-yl}propanoic acid], 14 nM.
